The values that follow are results of earlier work, collected in US12280067B2 (Phenolics, LLC, priority 2019, dated 2025).

Molecules are shown by their SMILES.

Data set [1] has as its system Caco-2 monolayers. The following applies: Dash et al. 2001.
The conditions of data set [2]: rats, injected intravenously.
For data set [3] the following is noted: oral, 6-week period, versus creatine monohydrate.

As to `CN(CC(=O)O)C(=N)N` [creatine], the “Permeability via Caco-2 monolayers” value in data set [1] is given as “quite low”.
On to `CN(CC(=O)O)C(=N)NP(=O)(O)O` [phosphocreatine, N-Methyl-N-(phosphono-carbamimidoyl)glycine], for which, in data set [2], the “ATP levels in red blood cells” value is recorded as “significant elevation”; the “Bio-transformation and elimination in the body” value was “very rapidly”. Further, the “Effectiveness in achieving lean body mass, desired body weight and improved strength” value in data set [3] is reported as “as effective as creatine monohydrate”.
